In patent US9980943B2, “Methods of treating muscular dystrophy” (BOARD OF REGENTS OF THE NEVADA SYSTEM OF HIGHER EDUCATION, …, priority 2013, dated 2018):

Key:
Type in all cases: cell-based, mouse
[1] = system: β-galactosidase in CMV-LacZ C2C12 myotubes; assay: CMV-LacZ secondary screen in C2C12 myotubes (β-Gal stabilizing assay); conditions: for CMV-LACZ in Myotubes (β-galactosidase activity relative to DMSO): CMV-LacZ C2C12 myotubes, 96-well format
Summary of the method: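 β-Gal level was the read-out, measured in a clonal C2C12 line expressing LacZ from a CMV promoter. Dose-response curves used six concentrations, 0.5 μM up to 40 μM, with duplicate points.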

[2] = system: α7 integrin (LacZ reporter in α7βgal+/− myoblasts); assay: Myoblast α7+/LacZ integrin FDG assay (Burkin assay in myoblasts, 96-well); conditions: α7+/LacZ myoblasts, 96-well
[3] = system: α7 integrin (LacZ reporter in α7+/LacZ myotubes); assay: Myotube α7 integrin FDG assay (Burkin assay in myotubes, 96-well); conditions: myotubes

Structure (SMILES)	CMV-LACZ in Myotubes (β-galactosidase activity relative to DMSO) ([1]; 5 uM)	CMV-LACZ in Myotubes (β-galactosidase activity relative to DMSO) ([1]; 10 uM)	CMV-LACZ in Myotubes (β-galactosidase activity relative to DMSO) ([1]; 20 uM)	CMV-LACZ in Myotubes (β-galactosidase activity relative to DMSO) ([1]; 40 uM)	Burkin Assay in Myoblasts, value relative to DMSO ([2]; 0.5 uM)	Burkin Assay in Myoblasts, value relative to DMSO ([2]; 1 uM)	Burkin Assay in Myoblasts, value relative to DMSO ([2]; 5 uM)	Burkin Assay in Myoblasts, value relative to DMSO ([2]; 10 uM)	Burkin Assay in Myoblasts, value relative to DMSO ([2]; 20 uM)	Burkin Assay in Myoblasts, value relative to DMSO ([2]; 40 uM)	Burkin Assay in Myotubes (signal relative to DMSO) ([3]; 0.5 uM)	Burkin Assay in Myotubes (signal relative to DMSO) ([3]; 1 uM)	Burkin Assay in Myotubes (signal relative to DMSO) ([3]; 5 uM)	Burkin Assay in Myotubes (signal relative to DMSO) ([3]; 10 uM)	Burkin Assay in Myotubes (signal relative to DMSO) ([3]; 20 uM)	Burkin Assay in Myotubes (signal relative to DMSO) ([3]; 40 uM)	other results
COc1cc(NC(=O)C2C3C=CC(C3)C2C(=O)O)ccc1NC(=O)c1ccccc1 (stereo not shown) [MLS001125488-01]																	fold induction at 5 µM ([1]; Mus musculus, C2C12, read-out: CMV-LACZ in Myotubes, signal relative to DMSO, 5 uM, C2C12 CMV-LacZ myotubes, fold relative to DMSO): 0.747; fold induction at 10 µM ([1]; Mus musculus, C2C12, read-out: CMV-LACZ in Myotubes, signal relative to DMSO, 10 uM, C2C12 CMV-LacZ myotubes, fold relative to DMSO): 0.968; fold induction at 20 µM ([1]; Mus musculus, C2C12, read-out: CMV-LACZ in Myotubes, signal relative to DMSO, 20 uM, C2C12 CMV-LacZ myotubes, fold relative to DMSO): 1.18; fold induction at 40 µM ([1]; Mus musculus, C2C12, read-out: CMV-LACZ in Myotubes, signal relative to DMSO, 40 uM, C2C12 CMV-LacZ myotubes, fold relative to DMSO): 0.872; fold induction at 0.5 µM ([2]; Mus musculus, Myoblast, 48 h, 0.5 uM, read-out: Burkin Assay in Myoblasts, signal relative to DMSO): 0.933; fold induction at 1 µM ([2]; Mus musculus, Myoblast, 48 h, 1 uM, read-out: Burkin Assay in Myoblasts, signal relative to DMSO): 0.976; fold induction at 5 µM ([2]; Mus musculus, Myoblast, 48 h, 5 uM, read-out: Burkin Assay in Myoblasts, signal relative to DMSO): 0.99; fold induction at 10 µM ([2]; Mus musculus, Myoblast, 48 h, 10 uM, read-out: Burkin Assay in Myoblasts, signal relative to DMSO): 0.879; fold induction at 20 µM ([2]; Mus musculus, Myoblast, 48 h, 20 uM, read-out: Burkin Assay in Myoblasts, signal relative to DMSO): 0.907; fold induction at 40 µM ([2]; Mus musculus, Myoblast, 48 h, 40 uM, read-out: Burkin Assay in Myoblasts, signal relative to DMSO): 0.923; fold induction at 0.5 µM ([3]; Mus musculus, Myotube, 0.5 uM, read-out: Burkin Assay in Myotubes, α7 integrin LacZ reporter signal relative to DMSO): 1.03; fold induction at 1 µM ([3]; Mus musculus, Myotube, 1 uM, read-out: Burkin Assay in Myotubes, α7 integrin LacZ reporter signal relative to DMSO): 1.15; fold induction at 5 µM ([3]; Mus musculus, Myotube, 5 uM, read-out: Burkin Assay in Myotubes, α7 integrin LacZ reporter signal relative to DMSO): 1.12; fold induction at 10 µM ([3]; Mus musculus, Myotube, 10 uM, read-out: Burkin Assay in Myotubes, α7 integrin LacZ reporter signal relative to DMSO): 1.32; fold induction at 20 µM ([3]; Mus musculus, Myotube, 20 uM, read-out: Burkin Assay in Myotubes, α7 integrin LacZ reporter signal relative to DMSO): 1.14; fold induction at 40 µM ([3]; Mus musculus, Myotube, 40 uM, read-out: Burkin Assay in Myotubes, α7 integrin LacZ reporter signal relative to DMSO): 1.22
Cc1ccc(S(=O)(=O)N2CN(CC3CCCO3)c3nc4ccccc4nc32)c(C)c1 (stereo not shown) [MLS001139288-01]																	CMV-LACZ in Myotubes, signal relative to DMSO ([1]; 5 uM, C2C12 CMV-LacZ myotubes, fold relative to DMSO): 1.247; CMV-LACZ in Myotubes, signal relative to DMSO ([1]; 10 uM, C2C12 CMV-LacZ myotubes, fold relative to DMSO): 1.047; CMV-LACZ in Myotubes, signal relative to DMSO ([1]; 20 uM, C2C12 CMV-LacZ myotubes, fold relative to DMSO): 1.096; CMV-LACZ in Myotubes, signal relative to DMSO ([1]; 40 uM, C2C12 CMV-LacZ myotubes, fold relative to DMSO): 1.0825; Burkin Assay in Myoblasts, signal relative to DMSO ([2]; 0.5 uM): 0.9823; Burkin Assay in Myoblasts, signal relative to DMSO ([2]; 1 uM): 0.9709; Burkin Assay in Myoblasts, signal relative to DMSO ([2]; 5 uM): 0.8634; Burkin Assay in Myoblasts, signal relative to DMSO ([2]; 10 uM): 0.9225; Burkin Assay in Myoblasts, signal relative to DMSO ([2]; 20 uM): 1.085; Burkin Assay in Myoblasts, signal relative to DMSO ([2]; 40 uM): 0.9336; Burkin Assay in Myotubes, α7 integrin LacZ reporter signal relative to DMSO ([3]; 0.5 uM): 0.9234; Burkin Assay in Myotubes, α7 integrin LacZ reporter signal relative to DMSO ([3]; 1 uM): 0.8525; Burkin Assay in Myotubes, α7 integrin LacZ reporter signal relative to DMSO ([3]; 5 uM): 0.9829; Burkin Assay in Myotubes, α7 integrin LacZ reporter signal relative to DMSO ([3]; 10 uM): 0.9777; Burkin Assay in Myotubes, α7 integrin LacZ reporter signal relative to DMSO ([3]; 20 uM): 1.313; Burkin Assay in Myotubes, α7 integrin LacZ reporter signal relative to DMSO ([3]; 40 uM): 0.7808
COc1ccc(S(=O)(=O)N2CCN(C(=O)C3CCC3)CC2)cc1 [MLS001139515-01]	0.9404	0.7604	0.9237	0.9601	0.9225	0.9852	1.053	1.16	0.8336	0.8527	0.9636	1.009	1.013	0.9488	1.124	1.013	
COc1ccc(C(=O)N/C(=C/c2cccnc2)C(=O)N2CCN(C)CC2)cc1OC [MLS001140657-01]	1.053	1.046	1.05	1.075	0.9918	0.962	0.9528	0.8768	0.8568	0.7978	1.034	0.9506	1.083	0.9981	0.9948	0.9708	
